The assay relates to 233499-124-R-J3-PDC complex spheroid growth. As to the kind of experiment: Anticancer human tumor 233499-124-R-J3-PDC patient-derived colon adenocarcinoma cell line growth inhibition [AhR]. The note with it: for viability, T/C: stronger effect = lower value. A digest of the protocol:
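Agents were dosed in half-log steps down from roughly clinical Cmax, or from 10 microM where Cmax was unknown, alone and with AhR antagonists. Read-out: percent test/control growth of tumor spheroids containing HUVEC and MSC stromal cells.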

Setting [1] is: curve of first compound, second compound 0.1 µM.
[2] abbreviates: curve of first compound, second compound 0.316 µM.
The mark [3] stands for this setting: curve of first compound, second compound 1 µM.
The mark [4] stands for this setting: curve of first compound, second compound 3.16 µM.
The mark [5] stands for this setting: curve of first compound, second compound 10 µM.
[6] abbreviates: second compound 0.1 µM, first compound 0.0316 µM.
Where [7] appears, read: second compound 0.1 µM, first compound 0.1 µM.
[8] abbreviates: second compound 0.1 µM, first compound 0.316 µM.
Where [9] appears, read: second compound 0.1 µM, first compound 1 µM.
[10] abbreviates: second compound 0.1 µM, first compound 3.16 µM.
The mark [11] stands for this setting: second compound 0.1 µM, first compound 10 µM.
The mark [12] stands for this setting: second compound 0.316 µM, first compound 0.0316 µM.
The mark [13] stands for this setting: second compound 0.316 µM, first compound 0.1 µM.
Where [14] appears, read: second compound 0.316 µM, first compound 0.316 µM.
The mark [15] stands for this setting: second compound 0.316 µM, first compound 1 µM.
Setting [16] is: second compound 0.316 µM, first compound 3.16 µM.
Setting [17] is: second compound 0.316 µM, first compound 10 µM.
The mark [18] stands for this setting: second compound 1 µM, first compound 0.0316 µM.
[19] abbreviates: second compound 1 µM, first compound 0.1 µM.
The mark [20] stands for this setting: second compound 1 µM, first compound 0.316 µM.
[21] abbreviates: second compound 1 µM, first compound 1 µM.
[22] abbreviates: second compound 1 µM, first compound 3.16 µM.
Setting [23] is: second compound 1 µM, first compound 10 µM.
Setting [24] is: second compound 3.16 µM, first compound 0.0316 µM.
[25] abbreviates: second compound 3.16 µM, first compound 0.1 µM.
The mark [26] stands for this setting: second compound 3.16 µM, first compound 0.316 µM.
Setting [27] is: second compound 3.16 µM, first compound 1 µM.
The mark [28] stands for this setting: second compound 3.16 µM, first compound 3.16 µM.
Where [29] appears, read: second compound 3.16 µM, first compound 10 µM.
[30] abbreviates: second compound 10 µM, first compound 0.0316 µM.
[31] abbreviates: second compound 10 µM, first compound 0.1 µM.
Where [32] appears, read: second compound 10 µM, first compound 0.316 µM.
Where [33] appears, read: second compound 10 µM, first compound 1 µM.
Where [34] appears, read: second compound 10 µM, first compound 3.16 µM.
Setting [35] is: second compound 10 µM, first compound 10 µM.

Values joined by “and” are separate entries in the source; they are usually repeats but may differ in a detail not shown here. Identical values can stand only once. A value given as a limit tells only on which side of the number the result lay.
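Also: spheroids exposed to agents for seven days before reading.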

The term IC50 denotes the concentration needed to halve the response being measured. What is called viability, T/C is the result in the treated group divided by that in the control group, in per cent. `CC1(C)CCC(CN2CCN(c3ccc(C(=O)NS(=O)(=O)c4ccc(NCC5CCOCC5)c([N+](=O)[O-])c4)c(Oc4cnc5[nH]ccc5c4)c3)CC2)=C(c2ccc(Cl)cc2)C1` + CC(CO)NC(=O)c1cc(-c2ccc(Cl)cc2)nn(-c2cnn(C)c2)c1=O: the IC50 runs as follows: under setting [1], 6.82 µM; under setting [2], 7.05 µM; under setting [3], 6.78 µM; under setting [4], 6.62 µM; under setting [5], 6.5 µM. Further, the viability, T/C under setting [6] was 99.8%; the viability, T/C under setting [7] is 89.7%; the viability, T/C under setting [8] was 97.5%; the viability, T/C under setting [9] was 102%; the viability, T/C under setting [10] is 108%; the viability, T/C under setting [11] is 25.3%. The viability, T/C was 94.5% under setting [12]; 91.2% under setting [13]; 91.1% under setting [14]; 90.7% under setting [15]; 109% under setting [16]; 30.4% under setting [17]. Moreover, the viability, T/C is 97.4% under setting [18]; 96.5% under setting [19]; 90.7% under setting [20]; 104% under setting [21]; 103% under setting [22]; 25.5% under setting [23]. The viability, T/C under setting [24] is 97.5%; the viability, T/C under setting [25] was 92.1%; the viability, T/C under setting [26] was 94.5%; the viability, T/C under setting [27] was 106%; the viability, T/C under setting [28] is 96.8%; the viability, T/C under setting [29] was 23.8%. Also, the viability, T/C reads like this: under setting [30], 79.2%; under setting [31], 89.5%; under setting [32], 86.8%; under setting [33], 90.9%; under setting [34], 92.9%; under setting [35], 27.4%.
With `CC[C@@]1(O)C(=O)OCc2c1cc1n(c2=O)Cc2cc3c(CN(C)C)c(O)ccc3nc2-1`, the viability, T/C (compound 0.000316 µM) is 104% (2×) and 97.5%; the viability, T/C (compound 0.001 µM) is 107% and 86.7% and 95.5%; the viability, T/C (compound 0.00316 µM) is 94.7% and 92% and 87.1%; the viability, T/C (compound 0.01 µM) is 95% and 99.2% and 93.8%; the viability, T/C (compound 0.0316 µM) was 86.8% and 86.6% and 108%; the viability, T/C (compound 0.1 µM) was 92.3% and 83.2% and 89.9%. In addition, the concentration for half-maximal inhibition (IC50) (curve of compound) was > 0.1 µM.
As to `CCN(c1cc(-c2ccc(CN3CCOCC3)cc2)cc(C(=O)NCc2c(C)cc(C)[nH]c2=O)c1C)C1CCOCC1`, the viability, T/C reads like this: (compound 0.00949 µM) 92.4% and 97.3% and 86.5%; (compound 0.03 µM) 107% and 97% and 98%; (compound 0.0949 µM) 96.5% and 90.3% and 94.9%; (compound 0.3 µM) 103% and 96.3% and 91.4%; (compound 0.949 µM) 102% and 109% and 100%; (compound 3 µM) 106% and 97.9% and 96.6%. Also, the IC50 (curve of compound) was > 3 µM.
As for `NS(=O)(=O)OCC1CC(n2ccc3c(NC4CCc5ccccc54)ncnc32)CC1O` (stereo unspecified) + CC(CO)NC(=O)c1cc(-c2ccc(Cl)cc2)nn(-c2cnn(C)c2)c1=O, the IC50 stood at 0.229 µM under setting [1]; 0.196 µM under setting [2]; 0.214 µM under setting [3]; 0.194 µM under setting [4]; 0.112 µM under setting [5]. The viability, T/C runs as follows: under setting [6], 100%; under setting [7], 81.9%; under setting [8], 38.2%; under setting [9], 6.95%; under setting [10], 3.58%; under setting [11], 2.89%. Besides, the viability, T/C was 101% under setting [12]; 76.1% under setting [13]; 32.2% under setting [14]; 4.48% under setting [15]; 2.85% under setting [16]; 1.79% under setting [17]. In addition, the viability, T/C under setting [18] was 97.3%; the viability, T/C under setting [19] is 83.6%; the viability, T/C under setting [20] was 32.7%; the viability, T/C under setting [21] was 7.56%; the viability, T/C under setting [22] was 2.89%; the viability, T/C under setting [23] is 2.21%. Further, the viability, T/C under setting [24] is 97.8%; the viability, T/C under setting [25] was 85.1%; the viability, T/C under setting [26] was 23.9%; the viability, T/C under setting [27] is 7.17%; the viability, T/C under setting [28] is 4.49%; the viability, T/C under setting [29] is 4.6%. Besides, the viability, T/C is 89.6% under setting [30]; 54% under setting [31]; 12.6% under setting [32]; 4.19% under setting [33]; 4.04% under setting [34]; 2.93% under setting [35].
Take `COc1ccc([C@@H](O)c2cc(-c3ncnc4cc(N5CCOCC5)ccc34)c(F)cc2Cl)nn1`: the viability, T/C by setting is: (compound 0.0316 µM) 99.4% and 94% and 95.8%; (compound 0.1 µM) 95.7% and 89% and 102%; (compound 0.316 µM) 94.3% and 102% and 98.5%; (compound 1 µM) 99.9% and 87% and 104%; (compound 3.16 µM) 92.7% and 89.7% and 82.3%; (compound 10 µM) 98.3% and 91% and 81.9%. Further, the IC50 (curve of compound) is > 10 µM.
With `Nc1ccn(C2OC(CO)C(O)C2(F)F)c(=O)n1` (stereo unspecified) + Cc1ccccc1N=Nc1ccc(NC(=O)c2ccnn2C)c(C)c1, the IC50 was > 10 µM under setting [1]; 0.282 µM under setting [2]; > 10 µM under setting [3]; > 10 µM under setting [4]; > 10 µM under setting [5]. In addition, the viability, T/C reads like this: under setting [6], 103%; under setting [7], 93.1%; under setting [8], 69.5%; under setting [9], 56.9%; under setting [10], 65.7%; under setting [11], 64.6%. Also, the viability, T/C is, setting by setting: under setting [12], 91.2%; under setting [13], 101%; under setting [14], 42.1%; under setting [15], 39.1%; under setting [16], 41%; under setting [17], 57%. Also, the viability, T/C was 95.5% under setting [18]; 93.7% under setting [19]; 62.8% under setting [20]; 47.4% under setting [21]; 59.6% under setting [22]; 53.6% under setting [23]. In addition, the viability, T/C is 84.5% under setting [24]; 81.3% under setting [25]; 65.9% under setting [26]; 55.8% under setting [27]; 65.8% under setting [28]; 68.7% under setting [29]. The viability, T/C is 94% under setting [30]; 111% under setting [31]; 93.5% under setting [32]; 87.8% under setting [33]; 71.2% under setting [34]; 76.5% under setting [35].
